Test system: 328373-195-R-J1-PDC complex spheroids, viability % test/control
Assay: Anticancer human tumor 328373-195-R-J1-PDC patient-derived head and neck squamous carcinoma cell line growth inhibition [CLK]
Settings: for IC50: curve of first compound; for viability, T/C: stronger effect = lower value
Summary of the method: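 Multi-cell-type spheroids combined patient-derived tumor cells with HUVEC endothelial cells and human mesenchymal stem cells. Paired agents were dosed in half-log steps down from about clinical Cmax, or from 10 microM where Cmax was unknown.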

[1] = second compound 0.0316 µM, first compound 0.00949 µM
[2] = second compound 0.0316 µM, first compound 0.03 µM
[3] = second compound 0.0316 µM, first compound 0.0949 µM
[4] = second compound 0.0316 µM, first compound 0.3 µM
[5] = second compound 0.1 µM, first compound 0.00949 µM
[6] = second compound 0.1 µM, first compound 0.03 µM
[7] = second compound 0.1 µM, first compound 0.0949 µM
[8] = second compound 0.1 µM, first compound 0.3 µM
[9] = second compound 0.316 µM, first compound 0.00949 µM
[10] = second compound 0.316 µM, first compound 0.03 µM
[11] = second compound 0.316 µM, first compound 0.0949 µM
[12] = second compound 0.316 µM, first compound 0.3 µM
[13] = second compound 1 µM, first compound 0.00949 µM
[14] = second compound 1 µM, first compound 0.03 µM
[15] = second compound 1 µM, first compound 0.0949 µM
[16] = second compound 1 µM, first compound 0.3 µM
[17] = second compound 3.16 µM, first compound 0.00949 µM
[18] = second compound 3.16 µM, first compound 0.03 µM
[19] = second compound 3.16 µM, first compound 0.0949 µM
[20] = second compound 3.16 µM, first compound 0.3 µM
[21] = second compound 10 µM, first compound 0.00949 µM
[22] = second compound 10 µM, first compound 0.03 µM
[23] = second compound 10 µM, first compound 0.0949 µM
[24] = second compound 10 µM, first compound 0.3 µM
[25] = second compound 0.0316 µM, first compound 0.0316 µM
[26] = second compound 0.0316 µM, first compound 0.1 µM
[27] = second compound 0.0316 µM, first compound 0.316 µM
[28] = second compound 0.0316 µM, first compound 1 µM
[29] = second compound 0.0316 µM, first compound 3.16 µM
[30] = second compound 0.0316 µM, first compound 10 µM
[31] = second compound 0.1 µM, first compound 0.0316 µM
[32] = second compound 0.1 µM, first compound 0.1 µM
[33] = second compound 0.1 µM, first compound 0.316 µM
[34] = second compound 0.1 µM, first compound 1 µM
[35] = second compound 0.1 µM, first compound 3.16 µM
[36] = second compound 0.1 µM, first compound 10 µM
[37] = second compound 0.316 µM, first compound 0.0316 µM
[38] = second compound 0.316 µM, first compound 0.1 µM
[39] = second compound 0.316 µM, first compound 0.316 µM
[40] = second compound 0.316 µM, first compound 1 µM
[41] = second compound 0.316 µM, first compound 3.16 µM
[42] = second compound 0.316 µM, first compound 10 µM
[43] = second compound 1 µM, first compound 0.0316 µM
[44] = second compound 1 µM, first compound 0.1 µM
[45] = second compound 1 µM, first compound 0.316 µM
[46] = second compound 1 µM, first compound 1 µM
[47] = second compound 1 µM, first compound 3.16 µM
[48] = second compound 1 µM, first compound 10 µM
[49] = second compound 3.16 µM, first compound 0.0316 µM
[50] = second compound 3.16 µM, first compound 0.1 µM
[51] = second compound 3.16 µM, first compound 0.316 µM
[52] = second compound 3.16 µM, first compound 1 µM
[53] = second compound 3.16 µM, first compound 3.16 µM
[54] = second compound 3.16 µM, first compound 10 µM
[55] = second compound 10 µM, first compound 0.0316 µM
[56] = second compound 10 µM, first compound 0.1 µM
[57] = second compound 10 µM, first compound 0.316 µM
[58] = second compound 10 µM, first compound 1 µM
[59] = second compound 10 µM, first compound 3.16 µM
[60] = second compound 10 µM, first compound 10 µM
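Note: spheroids exposed to the agents for 7 days.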

SMILES: C=CC(=O)Nc1cc(Nc2nccc(-c3cn(C)c4ccccc34)n2)c(OC)cc1N(C)CCN(C)C + CN1CCN(c2cc(C(=O)Nc3cc4cc(-c5cnn(C)c5)ccc4cn3)ccn2)CC1
- IC50 (second compound 0.0316 µM): > 300 nM
- IC50 (second compound 0.1 µM): > 300 nM
- IC50 (second compound 0.316 µM): < 0.949 nM
- IC50 (second compound 1 µM): < 0.949 nM
- IC50 (second compound 3.16 µM): < 0.949 nM
- IC50 (second compound 10 µM): < 0.949 nM
- viability, T/C (second compound 0.0316 µM, first compound 0.000949 µM): 100%
- viability, T/C (second compound 0.0316 µM, first compound 0.003 µM): 112%
- viability, T/C [1]: 99.2%
- viability, T/C [2]: 96.9%
- viability, T/C [3]: 98.7%
- viability, T/C [4]: 93.6%
- viability, T/C (second compound 0.1 µM, first compound 0.000949 µM): 83.8%
- viability, T/C (second compound 0.1 µM, first compound 0.003 µM): 88.1%
- viability, T/C [5]: 87.4%
- viability, T/C [6]: 90.7%
- viability, T/C [7]: 96%
- viability, T/C [8]: 69%
- viability, T/C (second compound 0.316 µM, first compound 0.000949 µM): 30.1%
- viability, T/C (second compound 0.316 µM, first compound 0.003 µM): 35%
- viability, T/C [9]: 30.1%
- viability, T/C [10]: 26.3%
- viability, T/C [11]: 26.6%
- viability, T/C [12]: 18.1%
- viability, T/C (second compound 1 µM, first compound 0.000949 µM): 0.15%
- viability, T/C (second compound 1 µM, first compound 0.003 µM): 0.25%
- viability, T/C [13]: 0.9%
- viability, T/C [14]: 0.25%
- viability, T/C [15]: 1.86%
- viability, T/C [16]: 1.95%
- viability, T/C (second compound 3.16 µM, first compound 0.000949 µM): 1.21%
- viability, T/C (second compound 3.16 µM, first compound 0.003 µM): 0.16%
- viability, T/C [17]: 0.17%
- viability, T/C [18]: 0.15%
- viability, T/C [19]: 4.52%
- viability, T/C [20]: 2.34%
- viability, T/C (second compound 10 µM, first compound 0.000949 µM): 0.17%
- viability, T/C (second compound 10 µM, first compound 0.003 µM): 0.21%
- viability, T/C [21]: 1.31%
- viability, T/C [22]: 2.14%
- viability, T/C [23]: 3.21%
- viability, T/C [24]: 0.21%

SMILES: CC1(C)CCC(CN2CCN(c3ccc(C(=O)NS(=O)(=O)c4ccc(NCC5CCOCC5)c([N+](=O)[O-])c4)c(Oc4cnc5[nH]ccc5c4)c3)CC2)=C(c2ccc(Cl)cc2)C1 + CN1CCN(c2cc(C(=O)Nc3cc4cc(-c5cnn(C)c5)ccc4cn3)ccn2)CC1
- IC50 (second compound 0.0316 µM): 6500 nM
- IC50 (second compound 0.1 µM): > 10000 nM
- IC50 (second compound 0.316 µM): < 31.6 nM
- IC50 (second compound 1 µM): < 31.6 nM
- IC50 (second compound 3.16 µM): < 31.6 nM
- IC50 (second compound 10 µM): < 31.6 nM
- viability, T/C [25]: 98.7%
- viability, T/C [26]: 99.3%
- viability, T/C [27]: 93.3%
- viability, T/C [28]: 91.4%
- viability, T/C [29]: 83.8%
- viability, T/C [30]: 30.1%
- viability, T/C [31]: 88.8%
- viability, T/C [32]: 83.2%
- viability, T/C [33]: 86.4%
- viability, T/C [34]: 81.8%
- viability, T/C [35]: 78.2%
- viability, T/C [36]: 51.5%
- viability, T/C [37]: 28%
- viability, T/C [38]: 34.3%
- viability, T/C [39]: 33.9%
- viability, T/C [40]: 31.2%
- viability, T/C [41]: 33%
- viability, T/C [42]: 40.4%
- viability, T/C [43]: 0.22%
- viability, T/C [44]: 0.22%
- viability, T/C [45]: 0.21%
- viability, T/C [46]: 0.14%
- viability, T/C [47]: 2.75%
- viability, T/C [48]: 3.03%
- viability, T/C [49]: 0.09%
- viability, T/C [50]: 0.14%
- viability, T/C [51]: 1.25%
- viability, T/C [52]: 0.12%
- viability, T/C [53]: 0.11%
- viability, T/C [54]: 0.15%
- viability, T/C [55]: 0.11%
- viability, T/C [56]: 1.97%
- viability, T/C [57]: 3.19%
- viability, T/C [58]: 0.16%
- viability, T/C [59]: 1.92%
- viability, T/C [60]: 2.43%

SMILES: NC(=O)C(=Cn1cnc(-c2cc(C(F)(F)F)cc(C(F)(F)F)c2)n1)c1cncnc1 + CN1CCN(c2cc(C(=O)Nc3cc4cc(-c5cnn(C)c5)ccc4cn3)ccn2)CC1
- IC50 (second compound 0.0316 µM): 21.5 nM
- IC50 (second compound 0.1 µM): 12.8 nM
- IC50 (second compound 0.316 µM): < 9.49 nM
- IC50 (second compound 1 µM): < 9.49 nM
- IC50 (second compound 3.16 µM): < 9.49 nM
- IC50 (second compound 10 µM): < 9.49 nM
- viability, T/C [1]: 78.8%
- viability, T/C [2]: 38.3%
- viability, T/C [3]: 1.11%
- viability, T/C [4]: 0.32%
- viability, T/C (second compound 0.0316 µM, first compound 0.949 µM): 0.14%
- viability, T/C (second compound 0.0316 µM, first compound 3 µM): 1.38%
- viability, T/C [5]: 56.7%
- viability, T/C [6]: 31.2%
- viability, T/C [7]: 0.33%
- viability, T/C [8]: 0.56%
- viability, T/C (second compound 0.1 µM, first compound 0.949 µM): 0.08%
- viability, T/C (second compound 0.1 µM, first compound 3 µM): 3.54%
- viability, T/C [9]: 13.3%
- viability, T/C [10]: 1.99%
- viability, T/C [11]: 1.27%
- viability, T/C [12]: 0.99%
- viability, T/C (second compound 0.316 µM, first compound 0.949 µM): 0.07%
- viability, T/C (second compound 0.316 µM, first compound 3 µM): 1.88%
- viability, T/C [13]: 0.09%
- viability, T/C [14]: 0.12%
- viability, T/C [15]: 2.09%
- viability, T/C [16]: 1.38%
- viability, T/C (second compound 1 µM, first compound 0.949 µM): 2.09%
- viability, T/C (second compound 1 µM, first compound 3 µM): 0.22%
- viability, T/C [17]: 0.24%
- viability, T/C [18]: 1.6%
- viability, T/C [19]: 0.1%
- viability, T/C [20]: 1.06%
- viability, T/C (second compound 3.16 µM, first compound 0.949 µM): 0.12%
- viability, T/C (second compound 3.16 µM, first compound 3 µM): 1.99%
- viability, T/C [21]: 1.81%
- viability, T/C [22]: 0.08%
- viability, T/C [23]: 0.93%
- viability, T/C [24]: 0.14%
- viability, T/C (second compound 10 µM, first compound 0.949 µM): 1.29%
- viability, T/C (second compound 10 µM, first compound 3 µM): 0.16%

SMILES: Nc1ccccc1NC(=O)c1ccc(CNC(=O)OCc2cccnc2)cc1 + CN1CCN(c2cc(C(=O)Nc3cc4cc(-c5cnn(C)c5)ccc4cn3)ccn2)CC1
- IC50 (second compound 0.0316 µM): 706 nM
- IC50 (second compound 0.1 µM): 641 nM
- IC50 (second compound 0.316 µM): < 31.6 nM
- IC50 (second compound 1 µM): < 31.6 nM
- IC50 (second compound 3.16 µM): < 31.6 nM
- IC50 (second compound 10 µM): < 31.6 nM
- viability, T/C [25]: 90.1%
- viability, T/C [26]: 79.9%
- viability, T/C [27]: 63.5%
- viability, T/C [28]: 38.3%
- viability, T/C [29]: 34.1%
- viability, T/C [30]: 11.1%
- viability, T/C [31]: 74.5%
- viability, T/C [32]: 80%
- viability, T/C [33]: 55.4%
- viability, T/C [34]: 40.8%
- viability, T/C [35]: 30%
- viability, T/C [36]: 7.09%
- viability, T/C [37]: 26.5%
- viability, T/C [38]: 32.9%
- viability, T/C [39]: 22.5%
- viability, T/C [40]: 16.6%
- viability, T/C [41]: 8.58%
- viability, T/C [42]: 1.38%
- viability, T/C [43]: 0.23%
- viability, T/C [44]: 1.09%
- viability, T/C [45]: 0.16%
- viability, T/C [46]: 0.08%
- viability, T/C [47]: 1.1%
- viability, T/C [48]: 2.52%
- viability, T/C [49]: 0.07%
- viability, T/C [50]: 0.75%
- viability, T/C [51]: 1.64%
- viability, T/C [52]: 0.06%
- viability, T/C [53]: 0.07%
- viability, T/C [54]: 0.09%
- viability, T/C [55]: 0.04%
- viability, T/C [56]: 1.05%
- viability, T/C [57]: 0.15%
- viability, T/C [58]: 0.1%
- viability, T/C [59]: 2.24%
- viability, T/C [60]: 0.16%
